{"source": "ChEMBL document CHEMBL1129135", "about": "“Synthesis and antitumor evaluation of paclitaxel phosphonooxymethyl ethers: a novel class of water soluble paclitaxel pro-drugs” (1996)", "format_in_all_cases": "functional", "details_in_all_cases": "route intraperitoneal", "key": {"Mus musculus [1]": {"system": "Mus musculus", "experiment": "Compound was tested in vivo for its efficacy against the M109 murine tumor model at the dose of 200 mg/kg/inj after ip administration"}, "Mus musculus [2]": {"system": "Mus musculus", "experiment": "Compound was tested in vivo for its efficacy against the M109 murine tumor model at the dose of 60 mg/kg/injection after ip administration (Data reported with reference to Paclitaxel)"}, "Mus musculus [3]": {"system": "Mus musculus", "experiment": "Compound was tested in vivo for its efficacy against the M109 murine tumor model at the dose of 44 mg/kg/injection after ip administration (Data reported with reference to Paclitaxel)"}, "Mus musculus [4]": {"system": "Mus musculus", "experiment": "Compound was tested in vivo for its efficacy against the M109 murine tumor model at the dose of 64 mg/kg/injection after ip administration"}}, "data": [{"molecule": "CC(=O)O[C@H]1C(=O)[C@@]2(C)[C@H]([C@H](OC(=O)c3ccccc3)[C@]3(O)C[C@H](OC(=O)[C@H](OCOP(=O)(O)O)[C@@H](NC(=O)c4ccccc4)c4ccccc4)C(C)=C1C3(C)C)[C@]1(OC(C)=O)CO[C@@H]1C[C@@H]2O", "values": [{"measurement": "T/C", "setting": "Mus musculus [1]", "value": 144, "unit": "%"}, {"measurement": "T/C", "setting": "Mus musculus [2]", "value": 237, "unit": "%"}]}, {"molecule": "CCOC(=O)O[C@@H](C(=O)O[C@H]1C[C@@]2(O)[C@@H](OC(=O)c3ccccc3)[C@@H]3[C@]4(OC(C)=O)CO[C@@H]4C[C@H](OCOP(=O)(O)O)[C@@]3(C)C(=O)[C@H](OC(C)=O)C(=C1C)C2(C)C)[C@@H](NC(=O)c1ccccc1)c1ccccc1", "values": [{"measurement": "T/C", "setting": "Mus musculus [3]", "value": 175, "unit": "%"}, {"measurement": "T/C", "setting": "Mus musculus [4]", "value": 188, "unit": "%"}]}]}
